The data set is described as follows: gradient 5% acetonitrile 3 min, to 50% in 2 min, to 85% in 15 min, held 3 min, 100 µL/min. Particulars: column: Zorbax Extend-C18 2.1 x 50 mm; eluents: water / acetonitrile, 0.1% formic acid. The gist of the method:
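Using water and acetonitrile that each contained 0.1% formic acid, mixtures of ~100 pure standards were separated at 100 μL/min on a Zorbax Extend-C18 column (2.1 × 50 mm, 1.8 μm). The HPLC fed a quadrupole time-of-flight mass spectrometer working in positive and negative ionization mode, with dead and dwell volumes of 40 μL and 900 μL. Data were acquired over 3 months. Retention time was read from computationally picked adduct peaks after manual inspection of each.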
Molecule `CCN(CC)CCCNC(=O)C1CCCN(c2ncc(-c3ccc(F)cc3)cn2)C1` (stereo not drawn) displayed an RP-LC retention time of 668 s. Regarding `CC(C)CN1CCn2cc(C(=O)NC(C)c3ccccc3)nc2C1` (stereo not drawn), the RP-LC retention time worked out at 613 s. In the case of `Cc1cc(C)n(-c2nc(C)c(C)c(=O)n2CC(=O)N2CCCc3ccccc32)n1`, the RP-LC retention time was 907 s.

As to `CCn1cc(CN(Cc2c(C)nn(C)c2C)C(=O)C2CCN(c3cnn(C)c(=O)c3)C2)cn1` (stereo not drawn), the RP-LC retention time turned out to be 603 s.

As for `Cc1cc(=O)n(CC(=O)NC(C)CCc2ccccc2)c(N2CCc3ccccc3C2)n1` (stereo not drawn), the RP-LC retention time was 872 s. In turn, `O=C(CSc1ncnc2ccccc12)NCc1ccccc1` had an RP-LC retention time of 708 s. `CCCNC(=O)C1CCCN(c2nc3ncn(CC(=O)N4CCc5ccccc5C4)c(=O)c3s2)C1` (stereo not drawn) returned an RP-LC retention time of 705 s. `O=C(NCc1cccs1)C1CCN(S(=O)(=O)c2cc(C(=O)N3CCOCC3)cs2)CC1` displayed an RP-LC retention time of 803 s. Molecule `Cc1ccc(NC(=O)C2CCN(S(=O)(=O)c3ccc4[nH]c(=O)sc4c3)CC2)cc1Cl` returned an RP-LC retention time of 904 s. Molecule `CCNC(=O)c1csc(N2CCCC2)n1` returned an RP-LC retention time of 723 s. Molecule `Cc1ccc(Cl)cc1N1CCN(C(=O)CN2C(=O)C3C4C=CC(C4)C3C2=O)CC1` (stereo not drawn) gave an RP-LC retention time of 977 s. `CCOc1ccc(OCC)c(NS(=O)(=O)c2cc(-c3cc(CC)no3)cs2)c1` had an RP-LC retention time of 1090 s. `Cc1ccc2c(Nc3ccc4c(c3)OCCO4)c(C(=O)N3CCCC(C)C3)cnc2n1` (stereo not drawn) gave an RP-LC retention time of 645 s. The molecule `COc1ccc(NC(=O)N2c3ccccc3CC2c2nc(C3CC3)no2)cc1OC` (stereo not drawn) came in with an RP-LC retention time of 933 s.

Turning to `COc1ccc(OC)c(NC(=O)N2CCN(Cc3cn(C)c4ccccc34)CC2)c1`, the RP-LC retention time came to 664 s. In turn, `O=C(NCc1ccccc1F)c1cccc(-c2ccc(N3CCCC3)nc2)c1` registered an RP-LC retention time of 675 s. As for `Cc1cnc(CCNS(=O)(=O)c2ccc(C#N)cc2)n1C1CC1`, the RP-LC retention time is 960 s. As for `CCOc1ccc2nc(C(=O)N3CCN(c4ccc(Cl)cc4)CC3)cn2n1`, the RP-LC retention time was found to be 1000 s. The molecule `Cc1ccn2c(NC(=O)c3ccc(F)cc3)c(-c3ccc(F)cc3)nc2c1` returned an RP-LC retention time of 672 s. For `Cc1ccc(C)c(CS(=O)(=O)NCCc2cn(CC(C)C)c3ncccc23)c1`, the RP-LC retention time worked out at 1070 s. `CCN(CC)S(=O)(=O)N1CCC(C(=O)NCCc2ccc(OC)c(OC)c2)CC1` displayed an RP-LC retention time of 751 s. In turn, `COc1ccc(Cl)cc1NC(=O)Cn1cc2c(n1)CCCC2` had an RP-LC retention time of 1020 s. For `CCc1ccc2oc(C(=O)NCC(c3ccccc3)N(C)C)cc(=O)c2c1` (stereo not drawn), the RP-LC retention time was found to be 642 s. The molecule `O=C(c1ccco1)N1CCN(C(=O)c2nnn3c2COC(c2ccccc2)C3)CC1` (stereo not drawn) displayed an RP-LC retention time of 762 s. In the case of `CCn1ncc(NC(=O)c2ccccc2OC)c(N2CCOCC2)c1=O`, the RP-LC retention time was determined as 829 s.

Consider `Cc1ccc(S(=O)(=O)C2=C(O)C(=O)N(Cc3ccco3)C2c2ccc(Cl)cc2)cc1` (stereo not drawn), for which the RP-LC retention time stood at 982 s. Take `COc1c(/C=N/NC(N)=O)c(OC)c(OC)c2c1CCO2`: the RP-LC retention time was found to be 1080 s. `Cc1c(C2CCN(C(=O)c3ccc4c(c3)OCO4)CC2)noc1N` came in with an RP-LC retention time of 663 s. The result for `COc1ccc(-c2noc(Cc3nnc(-c4cc(C)cc(C)c4)o3)n2)cc1` reads 1110 s; that for `O=C(COc1ccc(Cl)cc1)Oc1ccc2nc(N3CCOCC3)sc2c1`, 971 s; that for `CCCCN1CCN(C(=O)C2c3ccccc3CCN2C(=O)CC)CC1` (stereo not drawn), 626 s.

Regarding `O=C1CCCc2cc(S(=O)(=O)NCCCN3CCN(Cc4ccccc4)CC3)ccc2N1`, the RP-LC retention time turned out to be 581 s. Molecule `Cc1[nH]c(=O)[nH]c(=O)c1CC(=O)Nc1cccc(NS(C)(=O)=O)c1` returned an RP-LC retention time of 549 s. The molecule `COc1cc(Cl)ccc1C(=O)NCc1c(C)noc1C` showed an RP-LC retention time of 810 s.

Turning to `Cc1ccc(CS(=O)(=O)N2CCC(n3c(-c4ccco4)nc4cccnc43)C2)cc1C` (stereo not drawn), the RP-LC retention time worked out at 995 s.

Regarding `Cc1cnc(-c2ccncc2)n1CC1CN(S(=O)(=O)c2ccc3c(c2)CCC3)C1`, the RP-LC retention time stood at 651 s. The result for `Cc1ccc(C(=O)N2CCC3(CC2)NC(=O)c2cc(F)ccc2N3C)cc1` reads 776 s; that for `O=C(Cn1c(=O)cnc2cc(C(=O)NC3CC3)ccc21)Nc1ccccc1C(F)(F)F`, 646 s; that for `O=C(NC1CCCCC1)C1CCCN(c2ccnc(-c3ccc(F)cc3)n2)C1` (stereo not drawn), 695 s. The value for `COc1ccc(CNC(=O)Cn2ccc3ccc(N4CCOCC4)nc32)cc1` was 831 s; that for `O=C(NCc1ccc(F)cc1F)C1CCN(c2ccc(SCc3ccccc3)nn2)CC1` was 646 s; that for `COc1cc2ncc(-c3ccccc3)nc2cc1OC` was 1020 s. `CC(C)c1ccc(NC(=O)CN2C(=O)C(C(=O)N3CCCC3)Sc3ccccc32)cc1` (stereo not drawn): the RP-LC retention time turned out to be 1140 s. For `Nc1nc(N2CCN(c3ccccn3)CC2)ncc1C(=O)Nc1ccccc1`, the RP-LC retention time was found to be 585 s.

In turn, `O=C(Cn1nc(Cc2cccnc2)c2ccccc2c1=O)NCC1COc2ccccc2O1` (stereo not drawn) registered an RP-LC retention time of 640 s. The value for `COc1ccc(Cl)cc1NC(=O)CSc1ccc(-n2ccnc2)nn1` was 613 s; that for `O=C1[C@H]2CN(Cc3cc(Cl)ccc3F)C[C@H]2C(=O)N1CCN1CCc2ccccc2C1` was 684 s; that for `Cc1ccc2[nH]c(=O)c(CCC(=O)NCc3ccncc3)cc2c1` was 586 s. Molecule `CCOc1ccc(/C=C/C(=O)Nc2nc(-c3ccc4c(c3)NC(=O)C(C)O4)cs2)cc1OC` (stereo not drawn) had an RP-LC retention time of 927 s. In turn, `Cc1cccc2nc(-c3ccccc3)c(Nc3ccc4c(c3)OCCO4)n12` yielded an RP-LC retention time of 679 s. `COc1cc(Cl)ccc1-c1nc(-c2cccc(-c3ccnn3C)c2)no1` had an RP-LC retention time of 1190 s.

As to `COCCn1cc(CCNC(=O)Nc2cc(C)ccc2C)c2cccnc21`, the RP-LC retention time turned out to be 752 s.

As to `CC1CCN(C(=O)C2=CN(c3cc(F)cc(F)c3)c3ccccc3S2(=O)=O)CC1`, the RP-LC retention time is 945 s. As to `COc1ccccc1Nc1c(-c2ccc(C(=O)O)cc2)nc2cnccn12`, the RP-LC retention time stood at 730 s. In turn, `O=C(CN1CCCCC1c1nc(-c2cccc(F)c2)no1)Nc1ccc(F)cc1` (stereo not drawn) displayed an RP-LC retention time of 1130 s. Regarding `O=C(Nc1cccc(OCc2nnc(-c3ccc(F)cc3)o2)c1)c1ccsc1`, the RP-LC retention time was 920 s.

The molecule `Cc1cc(C)n(-c2ccc(C(=O)NCc3ccc(C)o3)cn2)n1` came in with an RP-LC retention time of 848 s. In turn, `O=C(NCc1ccc(F)cc1F)c1c(O)c2cccnc2n(Cc2ccccc2)c1=O` returned an RP-LC retention time of 1400 s. In the case of `O=C(Nc1ccc(-n2cnc(C(=O)N3CCN(c4ccccc4)CC3)c2)nc1)C1CC1`, the RP-LC retention time turned out to be 726 s. For the molecule `O=C(O)C1CCN(c2ncnc3nc[nH]c23)CC1`, the RP-LC retention time was found to be 548 s. Turning to `O=S1(=O)C[C@H](N2CCN(c3ccccn3)CC2)[C@@H](S(=O)(=O)c2ccc(F)cc2)C1`, the RP-LC retention time turned out to be 1040 s. Regarding `O=C(CN1C(=O)CSc2ccc(C(=O)N3CCCCC3)cc21)NC1CCCCCC1`, the RP-LC retention time worked out at 839 s. Molecule `COCCc1noc(-c2cnc3nc(C)ccc3c2NCc2cccc(Cl)c2)n1` returned an RP-LC retention time of 711 s. In turn, `CSc1cccc(NC(=O)NC2CCN(c3ccc(F)c(C)c3)C2=O)c1` (stereo not drawn) yielded an RP-LC retention time of 867 s. Molecule `O=C(C1COc2ccccc2O1)N1CCN(Cc2nc3ccccc3[nH]2)CC1` (stereo not drawn) displayed an RP-LC retention time of 578 s. `COC(=O)c1cc(OCC(=O)Nc2ccc(F)cc2)c2cc(F)ccc2n1`: the RP-LC retention time came out at 836 s. Turning to `O=C1CC(c2nc(-c3ccc(Cl)cc3)no2)CN1c1ccc2c(c1)OCCO2` (stereo not drawn), the RP-LC retention time is 1040 s. The result for `COc1ccc2[nH]c3c(c2c1)CCNC31CCN(S(=O)(=O)c2c(C)nn(C)c2C)CC1` reads 641 s; that for `Cc1ccc(CNC(=O)N2CCN(C(=O)N3C[C@H]4C[C@@H](C3)[C@H]3CCCC(=O)N3C4)CC2)cc1`, 677 s; that for `CCN1c2ccc(C)cc2C(=O)NC12CCN(C(=O)Cc1ccc(Cl)cc1)CC2`, 919 s. `CCOC(=O)c1ccc(NC(=O)C2CCCN(c3nnc(C)c4c(C)n(-c5ccccc5)nc34)C2)cc1` (stereo not drawn) returned an RP-LC retention time of 797 s. The molecule `Cc1cc(C(=O)OCC(=O)c2cccc([N+](=O)[O-])c2)c2ccccc2n1` showed an RP-LC retention time of 804 s.

In turn, `Cc1cc(C)n(-c2ccnc(NCc3ccc(Cl)cc3)n2)n1` had an RP-LC retention time of 928 s. Take `O=C(NCc1ccccc1F)c1ccc2c(c1)Sc1ncccc1C(=O)N2C1CC1`: the RP-LC retention time is 794 s.

In the case of `COc1ccc(Cl)cc1S(=O)(=O)N1CCCC(C(N)=O)C1` (stereo not drawn), the RP-LC retention time was found to be 689 s. The result for `O=C(Cc1csc2nc(-c3cccc(Br)c3)cn12)Nc1cccc(F)c1` reads 1010 s; that for `COc1ccc(OC)c(-c2csc(-c3nnn(-c4ccc(C)c(C)c4)c3N)n2)c1`, 1230 s. The result for `NC(=NC1C2CC3CC(C2)CC1C3)Nc1ccc(I)cc1` (stereo not drawn) reads 887 s.

These data come from the METLIN SMRT retention time set (Domingo-Almenara et al. 2019).
